Test results published in PMC7660103, “Discovery of Novel 3-Cyanopyridines as Survivin Modulators and Apoptosis Inducers” (Molecules, 2020).

Columns and labels:
MDA-MB-231 cells = assay: Annexin V-FITC/PI apoptosis assay; type: cell-based, human
Experimental: So, inhibiting survivin should result in increased spontaneous apoptosis in tumor cells. In this study, the apoptotic potential of 5c and 5e was further assessed using Annexin V-FITC assay.
MDA-MB-231 cells were plated in 24-well tissue culture plates. […] After 48 h, cells that floated were collected from the medium. The adherent cells were separated using 0.05% trypsin. After that, a 10% FBS medium was added for inactivating trypsin. Following slow pipetting, the centrifugation of cells was done for 5 min at 1500× g. Then, the supernatant was discarded, and cells were then stained with double annexin V-fluorescein isothiocyanate in addition to propidium iodide (PI) staining following the manufacturer’s directions. Analysis of the cells was investigated using a FACScan flow cytometer.

[1] = tested on: breast cancer (MDA-MB-231) cells; assay: SRB cytotoxicity assay, MDA-MB-231; type: cell-based, human
Experimental: (§1) In the present work, sulforhodamine B (SRB) colorimetric assay was done to evaluate the cytotoxic activity of the synthesized 3-cyano pyridines 4a–4e, 5a–5e, and 6a–6e on three human cancer cell lines: prostate carcinoma (PC-3), breast cancer (MDA-MB-231) and hepatocellular carcinoma (HepG2) cell lines. 5-FU was used as a standard drug for comparison.
(§2) Human cancer cells were obtained from Nawah Scientific Inc. (Mokatam, Cairo, Egypt). Cells were maintained in DMEM media containing […] streptomycin, 100 units/mL penicillin, and 10% heat-inactivated fetal bovine serum in humified, 5% (v/v) CO2 atmosphere at 37 °C.
(§3) Cell viability was estimated using the SRB assay. Aliquots of 100 µL cell suspension (5 × 10^3 cells) in 96-well plates were incubated in complete media for 24 h. Cells were treated with a second aliquot of 100 µL media containing various concentrations of the tested compounds (0.01, 0.1, 1, 10, and 100 μM). After 72 h, cells were fixed by replacing media with 15 µL of 10% TCA and then incubated at 4 °C for 1 h. After that, TCA solution was removed, and the cells were washed 5 times with distilled water. Aliquots of 70 µL SRB solution (0.4% w/v) were added and incubated in a dark place at room temperature for 10 min. Plates were washed 3 times with 1% acetic acid and allowed to air dry overnight. Then, 150 µL of TRIS (10 mM) was added to dissolve protein-bound SRB stain. The absorbance was measured at 540 nm using BMG LABTECH®-FLUO star Omega microplate reader (Ortenberg, Germany).

Livin = assay: Western blotting of Livin in MDA-MB-231 cells; type: cell-based, human
Experimental: (§4) The ability of the 2-oxo-3-cyano pyridines 5c and 5e to cause an inhibition of survivin was evaluated by the use of Western blotting analysis in MDA-MB-231cells treated with different concentrations of both compounds (1, 5, and 10 µM). […] Furthermore, to test the effect of these compounds on some other IAP family proteins, the Western plot of Livin, XIAP, and C-IAP1 proteins was performed (Figure 6). […] The Supplementary Material Figures S40 and S41 contain western blotting analysis for 5c and 5e.
(§5) MDA-MB-231 cancer cells were incubated with 5c and 5e at different concentrations (1, 5, and 10 µM) for 48 h. Afterwards, the medium was detached, and the cells were washed using PBS (10 mmol/L, pH 7.4). Then, the cells were incubated on cold lysis buffer (50 mmol/L Tris–HCl, 150 mmol/L NaCl, 1 mmol/L EGTA, 1 mmol/L EDTA, 20 mmol/L NaF, […], 0.5% NP40, 1% Triton X-100, 1 mmol/L PMSF (pH 7.4)) and a freshly added cocktail inhibitor (Inhibitor Cocktail Set III, Calbiochem, La Jolla, CA) above ice for 30 min. Then, MDA-MB-231 cells were collected and centrifuged at 12,000× g for 15 min.
(§6) XIAp, Survivin, Livin, and cIAP1anti-mouse, anti-rabbit secondary antibodies, and GAPDH were purchased from Sigma-Aldrich, whereas the gel was obtained from BioRad. Polyacrylamide gels were moved to a nitrocellulose membrane in order to block in buffer (7% nonfat dry milk/1% Tween 20; in 20 mmol/L TBS (pH 7.6)) for 1 h and incubated for 2 h at room temperature with the suitable primary antibody in blocking buffer or overnight at 4 °C; then, they were incubated with secondary antibody HRP conjugate. Finally, the blots analysis was done using the imaging system.

XIAP = assay: Western blotting of XIAP in MDA-MB-231 cells; type: cell-based, human
Experimental: as §4, §5, §6

survivin = target: T1, survivin (Homo sapiens, UniProt O15392); assay: Western blotting of survivin in MDA-MB-231 cells; type: cell-based
T1 construct: Western blotting analysis in MDA-MB-231cells treated with different concentrations of both compounds; endogenous in cells; host or cells: MDA-MB-231
Experimental: as §4, §5, §6

normal cell line WI-38 = assay: SRB cytotoxicity assay, normal cell line WI-38; type: cell-based; settings: Homo sapiens, WI-38, mean ± SD of three experiments
Experimental: The cytotoxicity of the newly synthesized compounds on the normal cell line WI-38 was also evaluated in order to examine the safety of these compounds.
as §3

[2] = tested on: hepatocellular carcinoma (HepG2) cells; assay: SRB cytotoxicity assay, HepG2; type: cell-based, human
Experimental: as §1, §2, §3

[3] = cytotoxicity compared with 5-FU

T1 sequence (O15392 whole entry): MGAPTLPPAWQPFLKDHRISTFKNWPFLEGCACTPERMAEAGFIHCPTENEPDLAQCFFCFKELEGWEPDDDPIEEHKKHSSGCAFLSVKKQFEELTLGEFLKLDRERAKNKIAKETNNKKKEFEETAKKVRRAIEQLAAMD

COc1ccc(-c2cc(-c3ccc(OCc4ccc(F)cc4)cc3)[nH]c(=O)c2C#N)cc1 [Compound 5e, 6-(4-((4-Fluorobenzyl)oxy)phenyl)-4-(4-methoxyphenyl)-2-oxo-1,2-dihydropyridine-3-carbonitrile]
total increase in apoptotic and necrotic cells compared to control (MDA-MB-231 cells; MDA-MB-231, Annexin V-FITC): 10.41 fold | Percent of cell death: Apoptosis Late (MDA-MB-231 cells; MDA-MB-231, IC50 concentration, 48 h, control 0.31): 10.91% | Percent of cell death: Necrosis (MDA-MB-231 cells; MDA-MB-231, IC50 concentration, 48 h, control 0.47): 2.38% | Percent of cell death: Apoptosis Early (MDA-MB-231 cells; MDA-MB-231, IC50 concentration, 48 h, control 1.09): 6.18% | Percent of cell death: Total (MDA-MB-231 cells; MDA-MB-231, IC50 concentration, 48 h, control 1.87): 19.47% | IC50 ([1]; Homo sapiens, MDA-MB-231, 72 h, SRB assay, 72 h, mean ± SD of three experiments): 3.59 ± 0.42 µM | Selectivity Index MDA-MB-231 ([1]; SI = IC50 on WI-38/IC50 on MDA-MB-231): 28.57 | activity relative to 5-FU, MDA-MB-231 [1, 3]: 2.6 fold | LIVIN band % (Livin; MDA-MB-231, 1µM): 25.7% | LIVIN band Area (Livin; MDA-MB-231, 1µM): 2085 | LIVIN band Height (Livin; MDA-MB-231, 1µM): 136 | LIVIN band Width (Livin; MDA-MB-231, 1µM): 33 | LIVIN band % (Livin; MDA-MB-231, 5µM): 16.6% | LIVIN band Area (Livin; MDA-MB-231, 5µM): 907 | LIVIN band Height (Livin; MDA-MB-231, 5µM): 68 | LIVIN band Width (Livin; MDA-MB-231, 5µM): 27 | LIVIN band % (Livin; MDA-MB-231, 10µM): 9.8% | LIVIN band Area (Livin; MDA-MB-231, 10µM): 330 | LIVIN band Height (Livin; MDA-MB-231, 10µM): 44 | LIVIN band Width (Livin; MDA-MB-231, 10µM): 14 | Livin protein level (Western blot, in words) (Livin; MDA-MB-231, 1, 5 and 10 µM): decreased the levels of these proteins | XIAP band % (XIAP; MDA-MB-231, 1µM): 15.4% | XIAP band Area (XIAP; MDA-MB-231, 1µM): 841 | XIAP band Height (XIAP; MDA-MB-231, 1µM): 80 | XIAP band Width (XIAP; MDA-MB-231, 1µM): 22 | XIAP band % (XIAP; MDA-MB-231, 5µM): 8.6% | XIAP band Area (XIAP; MDA-MB-231, 5µM): 287 | XIAP band Height (XIAP; MDA-MB-231, 5µM): 41 | XIAP band Width (XIAP; MDA-MB-231, 5µM): 17 | XIAP band % (XIAP; MDA-MB-231, 10µM): 4.7% | XIAP band Area (XIAP; MDA-MB-231, 10µM): 260 | XIAP band Height (XIAP; MDA-MB-231, 10µM): 28 | XIAP band Width (XIAP; MDA-MB-231, 10µM): 13 | XIAP protein level (Western blot, in words) (XIAP; MDA-MB-231, 1, 5 and 10 µM): decreased the levels of these proteins | Survivin band % (survivin; MDA-MB-231, 1µM): 31.4% | Survivin band Area (survivin; MDA-MB-231, 1µM): 1368 | Survivin band Height (survivin; MDA-MB-231, 1µM): 120 | Survivin band Width (survivin; MDA-MB-231, 1µM): 22 | Survivin band % (survivin; MDA-MB-231, 5µM): 25% | Survivin band Area (survivin; MDA-MB-231, 5µM): 1079 | Survivin band Height (survivin; MDA-MB-231, 5µM): 108 | Survivin band Width (survivin; MDA-MB-231, 5µM): 19 | Survivin band % (survivin; MDA-MB-231, 10µM): 19.1% | Survivin band Area (survivin; MDA-MB-231, 10µM): 1062 | Survivin band Height (survivin; MDA-MB-231, 10µM): 105 | Survivin band Width (survivin; MDA-MB-231, 10µM): 18 | survivin expression (Western blot, in words) (survivin; MDA-MB-231, 1, 5 and 10 µM): remarkable inhibition of survivin expression | IC50 (normal cell line WI-38): 102.6 ± 0.81 µM | IC50 ([2]; Homo sapiens, HepG2, 72 h, SRB assay, 72 h, mean ± SD of three experiments): 6.01 ± 0.53 µM | Selectivity Index HepG2 ([2]; SI = IC50 on WI-38/IC50 on HepG2): 17.06 | activity relative to 5-FU, HepG2 [2, 3]: comparable to 5-FU
